Key:
Format in all cases: in vivo
[1] = tested on: soybean (Glycine max var. Winchester); assay: Preemergence herbicidal activity, soybean; settings: Rate of Application 0.3 Kg/Ha, examined after 12-17 days
[2] = tested on: wheat (Triticum aestivum var. Lew); assay: Preemergence herbicidal activity, wheat; settings: Rate of Application 0.3 Kg/Ha, examined after 12-17 days
[3] = tested on: field corn (Zea mays var. Pioneer 3732); assay: Preemergence herbicidal activity, corn; settings: Rate of Application 0.3 Kg/Ha, examined after 12-17 days
[4] = tested on: velvetleaf (Abutilon theophrasti); assay: Preemergence herbicidal activity, velvetleaf; settings: Rate of Application 0.3 Kg/Ha, examined after 12-17 days
[5] = tested on: morningglory (Ipomea lacunosa or Ipomea hederacea); assay: Preemergence herbicidal activity, morningglory; settings: Rate of Application 0.3 Kg/Ha, examined after 12-17 days
[6] = tested on: common chickweed (Stellaria media); assay: Preemergence herbicidal activity, chickweed; settings: Rate of Application 0.3 Kg/Ha, examined after 12-17 days
[7] = tested on: common cocklebur (Xanthium strumarium L.); assay: Preemergence herbicidal activity, cocklebur; settings: Rate of Application 0.3 Kg/Ha, examined after 12-17 days
[8] = tested on: green foxtail (Setaria viridis); assay: Preemergence herbicidal activity, green foxtail; settings: Rate of Application 0.3 Kg/Ha, examined after 12-17 days
[9] = tested on: Johnsongrass (Sorghum halepense); assay: Preemergence herbicidal activity, johnsongrass; settings: Rate of Application 0.3 Kg/Ha, examined after 12-17 days
[10] = tested on: soybean (Glycine max var. Winchester); assay: Postemergence herbicidal activity, soybean; settings: rate of application 0.3 Kg/Ha, rated after 12-17 days
[11] = tested on: wheat (Triticum aestivum var. Lew); assay: Postemergence herbicidal activity, wheat; settings: rate of application 0.3 Kg/Ha, rated after 12-17 days
[12] = tested on: field corn (Zea mays var. Pioneer 3732); assay: Postemergence herbicidal activity, corn; settings: rate of application 0.3 Kg/Ha, rated after 12-17 days
[13] = tested on: velvetleaf (Abutilon theophrasti); assay: Postemergence herbicidal activity, velvetleaf; settings: rate of application 0.3 Kg/Ha, rated after 12-17 days
[14] = tested on: morningglory (Ipomea lacunosa or Ipomea hederacea); assay: Postemergence herbicidal activity, morningglory; settings: rate of application 0.3 Kg/Ha, rated after 12-17 days
[15] = tested on: common chickweed (Stellaria media); assay: Postemergence herbicidal activity, chickweed; settings: rate of application 0.3 Kg/Ha, rated after 12-17 days
[16] = tested on: common cocklebur (Xanthium strumarium L.); assay: Postemergence herbicidal activity, cocklebur; settings: rate of application 0.3 Kg/Ha, rated after 12-17 days
[17] = tested on: blackgrass (Aloepecurus myosuroides); assay: Postemergence herbicidal activity, blackgrass; settings: rate of application 0.3 Kg/Ha, rated after 12-17 days
[18] = tested on: green foxtail (Setaria viridis); assay: Postemergence herbicidal activity, green foxtail; settings: rate of application 0.3 Kg/Ha, rated after 12-17 days
[19] = tested on: Johnsongrass (Sorghum halepense); assay: Postemergence herbicidal activity, johnsongrass; settings: rate of application 0.3 Kg/Ha, rated after 12-17 days
[20] = tested on: blackgrass (Aloepecurus myosuroides); assay: Preemergence herbicidal activity, blackgrass; settings: Rate of Application 0.3 Kg/Ha, examined after 12-17 days

Compound	PREEMERGENCE HERBICIDAL ACTIVITY (% CONTROL) SOY [1] [%]	PREEMERGENCE HERBICIDAL ACTIVITY (% CONTROL) WHT [2] [%]	PREEMERGENCE HERBICIDAL ACTIVITY (% CONTROL) CRN [3] [%]	PREEMERGENCE HERBICIDAL ACTIVITY (% CONTROL) ABUTH [4] [%]	PREEMERGENCE HERBICIDAL ACTIVITY (% CONTROL) IPOSS [5] [%]	PREEMERGENCE HERBICIDAL ACTIVITY (% CONTROL) STEME [6] [%]	PREEMERGENCE HERBICIDAL ACTIVITY (% CONTROL) XANPE [7] [%]	PREEMERGENCE HERBICIDAL ACTIVITY (% CONTROL) SETVI [8] [%]	PREEMERGENCE HERBICIDAL ACTIVITY (% CONTROL) SORHA [9] [%]	Postemergence herbicidal activity (% control) SOY [10] [%]	Postemergence herbicidal activity (% control) WHT [11] [%]	Postemergence herbicidal activity (% control) CRN [12] [%]	Postemergence herbicidal activity (% control) ABUTH [13] [%]	Postemergence herbicidal activity (% control) IPOSS [14] [%]	Postemergence herbicidal activity (% control) STEME [15] [%]	Postemergence herbicidal activity (% control) XANPE [16] [%]	Postemergence herbicidal activity (% control) ALOMY [17] [%]	Postemergence herbicidal activity (% control) SETVI [18] [%]	Postemergence herbicidal activity (% control) SORHA [19] [%]	PREEMERGENCE HERBICIDAL ACTIVITY (% CONTROL) ALOMY [20] [%]
Cn1c(C(F)(F)F)cc(=O)n(-c2ccc(Cl)c3cc(C=NO)oc23)c1=O [Compound 258]	30	30	75	100	60	0	60	40	40	80	30	60	80	70	5	50	30	60	50	
CNC(=O)c1cc2c(Cl)ccc(-n3c(=O)cc(C(F)(F)F)n(C)c3=O)c2o1 [Compound 270]	70	70	90	100	100		60	100	100	70	40	50	100	60	40		50	50	50	65
Cc1cc2c(Cl)cc(F)c(-n3c(=O)cc(C(F)(F)F)n(C)c3=O)c2o1 [Compound 222]	100	70	90	100	100	100	100	100	100	100	70	90	100	100	100	100	100	100	100	
CCOC(=O)c1cc2c(N3C(=O)C4=C(CCCC4)C3=O)ccc(Cl)c2[nH]1 [Compound 595, 3-(7-CHLORO-2-ETHOXYCARBONYLINDOL4-YL)-4,5,6,7-TETRAHYDRO-1H-ISOINDOLE-1,3(2H)-DIONE]	10	0	0	60	50	10	20	0	40	50	10	60	30	40	0	20	10	20	20	
Cc1cc2c(Cl)ccc(-n3c(=O)cc(C(F)(F)F)n(C)c3=O)c2o1 [Compound 221]	70	60	85	100	100	80		100	95	95	50	60	100	100	100	60	40	70	70	
COCOC(C)(C)c1cc2c(Cl)cc(F)c(-n3c(=O)cc(C(F)(F)F)n(C)c3=O)c2o1 [Compound 252]	100	100	100	100	100	100		100	100	95	90	100	100	100	100		100	100	100	100
CON=Cc1cc2c(Cl)ccc(-n3c(=O)cc(C(F)(F)F)n(C)c3=O)c2o1 [Compound 259]	70	40	80	100	70	100	55	100	95	80	35	75	100	90	30	70	55	80	70	
